Laboratory results as given in patent US20090131508A1, “Use of 2-Oxo-1-Pyrrolidone Derivatives for the Preparation of a Drug” (UCB PHARMA, S.A., priority 2005, published 2009).

How the values were obtained:
[1] = system: DMCM-induced seizures; experiment: threshold for DMCM-induced seizures in mice; assay type: in vivo, male NMRI mice; conditions: for Clonic convulsion DMCM threshold dose / First myoclonic jerks DMCM threshold dose: mean ± S.D.
Description: The effect of Brivaracetam on the threshold for DMCM-induced seizures is evaluated in male NMRI mice (25-35 g; N=10 per group). The threshold for induction of myoclonic jerks and clonic convulsions in all four extremities is determined by infusing a concentration of 0.5 mg/ml DMCM into the tail vein of unrestrained freely moving mice at a rate of 0.25 ml/min with an infusion pump and a maximum duration of infusion of 2 min. Saline or different doses of Brivaracetam are administered 30 min before DMCM infusion.

[2] = system: post-hypoxic myoclonus (auditory stimulus-induced myoclonic jerks); experiment: rat cardiac arrest model of post-hypoxic myoclonus; assay type: in vivo, male Sprague-Dawley rats; conditions: ip at 10, 30, 100 and 300 mg/kg, 48 hours after cardiac arrest; myoclonus score over 3 hours
Description: Brivaracetam is evaluated in a rat model of post-hypoxic myoclonus [Truong et al. (1994) Novel rat cardiac arrest model of post-hypoxic myoclonus. Mov. Disord. 9:201-206]. In this model, male Sprague-Dawley rats are subjected to mechanical-induced cardiac arrest for a short duration of time during which cerebral hypoxic insults are induced.
All surgical procedures are performed under deep anaesthesia (ketamine 85 mg/kg ip and xylazine 15 mg/kg ip). The cardiac arrest is initiated and maintained for a duration of 8 minutes by mechanically obstructing all the major cardiac blood vessels including the aorta by hooking up the vessels with an L-shaped loop inserted into the rat body cavity. […]
These animals show jerking movements in response to auditory stimuli and other features of myoclonus that are similar to those observed in human condition. […] The involuntary muscle jerks in response to each stimulus are scored as follows: 0=no jerks; 1=ear twitch; 2=ear and body jerk; 3=ear, head and shoulder jerk; 4=whole body jerk; and 5=whole body jerk with jumping.
Antimyoclonic activity of Brivaracetam, administered ip at 10, 30, 100 and 300 mg/kg, is evaluated 48 hours after the cardiac arrest. The myoclonus score is recorded at 30 min interval over a period of 3 hours after dosing, in groups of 6 rats per dose.

## CCC[C@@H]1CC(=O)N([C@@H](CC)C(N)=O)C1 [Brivaracetam, (2S)-2-[(4R)-2-oxo-4-propylpyrrolidinyl]butanamide]
[1]; Brivaracetam 2.1 mg/kg IP
  Clonic convulsion DMCM threshold, change vs control: +46%
  First myoclonic jerks DMCM threshold, change vs control: +6%
  Clonic convulsion DMCM threshold dose: 3.34 ± 0.93 mg/kg
  First myoclonic jerks DMCM threshold dose: 1.05 ± 0.14 mg/kg
[1]; Brivaracetam 6.8 mg/kg IP
  Clonic convulsion DMCM threshold, change vs control: +104%
  First myoclonic jerks DMCM threshold, change vs control: +11%
  Clonic convulsion DMCM threshold dose: 4.68 ± 2.21 mg/kg
  First myoclonic jerks DMCM threshold dose: 1.10 ± 0.16 mg/kg
[1]; Brivaracetam 21.2 mg/kg IP
  Clonic convulsion DMCM threshold, change vs control: +183%
  First myoclonic jerks DMCM threshold, change vs control: +26%
  Clonic convulsion DMCM threshold dose: 6.47 ± 2.82 mg/kg
  First myoclonic jerks DMCM threshold dose: 1.25 ± 0.14 mg/kg
[1]; Brivaracetam 67.9 mg/kg IP
  Clonic convulsion DMCM threshold, change vs control: +182%
  First myoclonic jerks DMCM threshold, change vs control: +32%
  Clonic convulsion DMCM threshold dose: 6.46 ± 3.16 mg/kg
  First myoclonic jerks DMCM threshold dose: 1.31 ± 0.17 mg/kg
[1]; Brivaracetam 212.3 mg/kg IP
  Clonic convulsion DMCM threshold, change vs control: +213%
  First myoclonic jerks DMCM threshold, change vs control: +36%
  Clonic convulsion DMCM threshold dose: 7.16 ± 2.98 mg/kg
  First myoclonic jerks DMCM threshold dose: 1.35 ± 0.17 mg/kg
[2]
  Antimyoclonic activity: active
